One series has as its target EGFR wt (Homo sapiens, UniProt P00533). Nature of the series: EGFR wt Lance assay. Type of series: biochemical. The procedure:
(§1) Inhibition is indicated as […] [nM] (“−”=not measured). Compounds having an activity designated as “A” provided an IC50≤100 nM; compounds having an activity designated as “B” provided an 100 nM<IC50≤500 nM; compounds having an activity designated as “C” provided an 500 nM<IC50≤1000 nM; compounds having an activity designated as “D” provided an 1000 nM<IC50≤100000 nM; and compounds having an activity designated as “E” provided an IC50>10000 nM.

The target in a further series is T1, HER2 INS YVMA (Homo sapiens, UniProt P04626, INS775YVMA).
T1 construct: purchased DPF
Nature of the series: Lance Kinase Activity Assay, HER2 INS YVMA (Her2 Exon 20 INSYVMA Lance). Particulars: biochemical Lance assay. Format: biochemical. Put shortly:
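Kinase phosphorylates a ULight-labelled peptide substrate; Eu anti-phospho antibody gives TR-FRET (ex 340 nm, em 665/615 nm). Compounds in 1:3 serial dilution over 8 steps, reaction started with ATP, 1 h at room temperature, stopped with EDTA-containing detection mix for 1 h. IC50 from sigmoidal dose-response curves.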

The target in a further series is EGFR T790ML858R (Homo sapiens, UniProt P00533, L858R/T790M). Nature of the series: EGFR T790ML858R Lance assay. Type of series: biochemical. As for the experimental part:
as §1

Series [1] can be described thus: Metabolic stability in mouse liver microsomes without cofactor NADPH. Format: in vitro ADME. The following applies: 3 μM test compound, mouse liver microsomes, without NADPH, 50 min, 37° C., LC-MS/MS. Put shortly: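 Test compound (3 μM) was incubated with mouse liver microsomes without NADPH at 37° C. Depletion was followed by LC-MS/MS over time up to 50 min.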
Background: Microsomes from liver hold many membrane-bound enzymes, among them those of drug oxidation.

The test system of a further series is H1975. Nature of the series: H1975 CellTiter-Glo. Format: cell-based. The following applies: Homo sapiens, NCI-H1975; 72 h compound incubation; read-out: H1975 CTG IC50. Put shortly:
(§2)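 Antiproliferative IC50 values come from a 72 h treatment of cultured cells, measured by CellTiter-Glo ATP luminescence. Only runs with a Z′-factor of at least 0.5, calculated from 16 vehicle and 16 Staurosporine (10 μM) control wells, are reported.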
A general note: In ATP-based viability assays light output follows the ATP content of the culture.

For series [2], the target named is EGFR Exon 20 INSNPH Ba/F3 (Homo sapiens, UniProt P00533, DUP771-773, cells depend on it). Nature of the series: EGFR Exon 20 INSNPH Ba/F3 CellTiter-Glo. The following applies: CellTiter-Glo, 72 h, read-out: EGFR Exon 20 INSNPH Ba/F3 CTG IC50. Format: cell-based. Summed up: (§3)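 Ba/F3 cells dependent on the mutant kinase, seeded and grown 24 h, then treated with compound for 72 h at 37 °C, 5% CO2. Viability by CellTiter-Glo ATP luminescence versus DMSO and 10 μM staurosporine controls; IC50 from dose-response fit, plates accepted at Z′ ≥0.5; bins A ≤100 nM to E >10000 nM.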

The next series has as its system H1781. Nature of the series: H1781 CellTiter-Glo. The following applies: NCI-H1781; 72 h compound incubation; read-out: H1781 CTG IC50. Type of series: cell-based. As for the experimental part: 2. Measurement of Cellular Activity
The CellTiter-Glo Luminescent Cell Viability Assay (Promega) is a homogeneous method of determining the number of viable cells in culture. It is based on quantification of ATP, indicating the presence of metabolically active cells. Cells are seeded on day 1 at cell numbers that assure assay linearity and optimal signal intensity. After incubation for 24 h in humidified chambers at 37° C. and 5% CO2, compounds in DMSO are added at different concentrations. Cells are further incubated for 72 h at 37° C. and 5% CO2. Cells treated with the compound vehicle DMSO are used as positive controls and cells treated with 10 μM Staurosporine serve as negative controls. At day 5 the CellTiter Glo Reagent is prepared according to the instructions of the kit (Promega Inc.): Reagent is mixed 1:1 with cell culture medium. Thereon, mixture and assay plates are equilibrated at room temperature for 20 min. Equal volumes of the reagent-medium-mixture is added to the volume of culture medium present in each well. The plates are mixed at ˜200 rpm for 2 minutes on an orbital shaker. The microplates are then incubated at room temperature for 10 minutes for stabilization of the luminescent signal. Following incubation the luminescence is recorded on a Victor microplate reader (Perkin Elmer) using a 200 ms integration time. The data is then analyzed with Excel using the XLFIT Plugin (dose response Fit 205) for IC50-determination. As quality control the Z′-factor is calculated from 16 positive and negative control values. Only assay results showing a Z′-factor ≥0.5 are used for further analysis.
as §1

A further series deals with A431. Nature of the series: A431 CellTiter-Glo. Format: cell-based. The following applies: Homo sapiens, A-431; 72 h compound incubation; read-out: A431 CTG IC50. Summed up:
as §2

For series [3], the target named is Her2 Exon 20 INSYVMA Ba/F3 (Homo sapiens, UniProt P04626, DUP772-775, cells depend on it). Nature of the series: Her2 Exon 20 INSYVMA Ba/F3 CellTiter-Glo. Format: cell-based. The following applies: CellTiter-Glo, 72 h, read-out: Her2 Exon 20 INSYVMA Ba/F3 CTG IC50. Summed up: as §3

A value given as a limit tells only on which side of the number the result lay.

Sequence of EGFR wt (P00533 25-1210): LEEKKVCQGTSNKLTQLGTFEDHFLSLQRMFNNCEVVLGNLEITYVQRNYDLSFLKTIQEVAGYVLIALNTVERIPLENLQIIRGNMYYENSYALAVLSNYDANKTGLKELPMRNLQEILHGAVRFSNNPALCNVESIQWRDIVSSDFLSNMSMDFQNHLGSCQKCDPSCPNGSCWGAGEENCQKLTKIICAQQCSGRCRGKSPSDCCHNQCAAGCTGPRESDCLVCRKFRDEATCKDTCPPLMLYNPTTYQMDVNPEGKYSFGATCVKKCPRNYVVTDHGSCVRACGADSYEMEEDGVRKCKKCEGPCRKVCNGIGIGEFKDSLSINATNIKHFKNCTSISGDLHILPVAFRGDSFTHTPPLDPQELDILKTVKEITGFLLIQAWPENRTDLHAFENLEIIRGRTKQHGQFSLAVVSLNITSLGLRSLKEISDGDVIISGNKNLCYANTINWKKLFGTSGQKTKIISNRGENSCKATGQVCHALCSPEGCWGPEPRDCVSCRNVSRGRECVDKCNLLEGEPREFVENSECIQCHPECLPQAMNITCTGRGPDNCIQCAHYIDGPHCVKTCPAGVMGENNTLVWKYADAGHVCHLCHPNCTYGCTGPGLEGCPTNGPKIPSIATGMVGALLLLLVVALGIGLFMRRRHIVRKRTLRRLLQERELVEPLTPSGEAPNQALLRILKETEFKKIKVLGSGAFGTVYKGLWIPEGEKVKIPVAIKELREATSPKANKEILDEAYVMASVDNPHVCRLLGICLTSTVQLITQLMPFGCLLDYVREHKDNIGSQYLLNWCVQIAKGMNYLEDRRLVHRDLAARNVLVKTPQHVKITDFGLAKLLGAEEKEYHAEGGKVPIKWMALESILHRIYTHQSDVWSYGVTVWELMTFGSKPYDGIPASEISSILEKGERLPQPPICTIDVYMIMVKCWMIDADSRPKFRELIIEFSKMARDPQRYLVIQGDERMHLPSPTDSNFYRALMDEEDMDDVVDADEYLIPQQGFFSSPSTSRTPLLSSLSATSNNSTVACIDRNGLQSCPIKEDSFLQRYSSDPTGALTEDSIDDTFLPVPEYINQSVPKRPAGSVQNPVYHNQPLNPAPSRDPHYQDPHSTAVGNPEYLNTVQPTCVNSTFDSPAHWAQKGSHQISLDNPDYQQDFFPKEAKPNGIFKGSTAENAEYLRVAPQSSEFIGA
T1 sequence (P04626 with tags, fused parts or gaps INS775YVMA): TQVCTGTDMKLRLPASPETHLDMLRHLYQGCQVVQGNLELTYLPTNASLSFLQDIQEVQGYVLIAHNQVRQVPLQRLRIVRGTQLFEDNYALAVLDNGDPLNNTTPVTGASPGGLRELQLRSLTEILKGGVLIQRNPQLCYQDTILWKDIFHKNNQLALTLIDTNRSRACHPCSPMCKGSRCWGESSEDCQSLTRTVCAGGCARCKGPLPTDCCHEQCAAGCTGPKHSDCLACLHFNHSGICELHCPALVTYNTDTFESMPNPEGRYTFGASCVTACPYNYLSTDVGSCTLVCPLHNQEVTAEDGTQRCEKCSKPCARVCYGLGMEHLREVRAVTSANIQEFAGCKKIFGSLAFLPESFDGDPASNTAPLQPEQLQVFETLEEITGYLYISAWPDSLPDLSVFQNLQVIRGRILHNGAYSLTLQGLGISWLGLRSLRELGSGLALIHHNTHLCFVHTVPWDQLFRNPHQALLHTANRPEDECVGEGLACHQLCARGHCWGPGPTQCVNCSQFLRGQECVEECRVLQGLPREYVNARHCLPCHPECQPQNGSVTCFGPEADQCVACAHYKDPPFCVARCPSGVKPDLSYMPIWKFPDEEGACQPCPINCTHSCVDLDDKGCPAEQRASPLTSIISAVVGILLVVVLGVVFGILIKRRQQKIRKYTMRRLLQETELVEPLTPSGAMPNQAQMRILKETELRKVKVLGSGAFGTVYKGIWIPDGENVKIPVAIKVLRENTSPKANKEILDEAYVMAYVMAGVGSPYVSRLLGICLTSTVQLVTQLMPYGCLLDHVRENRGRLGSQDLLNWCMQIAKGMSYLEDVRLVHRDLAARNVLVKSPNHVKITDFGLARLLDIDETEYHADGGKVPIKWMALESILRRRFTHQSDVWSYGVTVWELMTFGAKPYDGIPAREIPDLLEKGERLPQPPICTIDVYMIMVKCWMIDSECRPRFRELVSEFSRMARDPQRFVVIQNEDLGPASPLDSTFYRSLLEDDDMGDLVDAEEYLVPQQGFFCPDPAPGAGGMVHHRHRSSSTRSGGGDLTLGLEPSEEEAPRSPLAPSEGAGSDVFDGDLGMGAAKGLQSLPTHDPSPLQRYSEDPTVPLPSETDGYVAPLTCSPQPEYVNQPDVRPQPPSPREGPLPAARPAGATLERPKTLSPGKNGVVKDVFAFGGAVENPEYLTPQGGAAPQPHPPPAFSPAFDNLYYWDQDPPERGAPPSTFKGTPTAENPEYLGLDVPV
Sequence of EGFR Exon 20 INSNPH Ba/F3 (P00533 with tags, fused parts or gaps DUP771-773): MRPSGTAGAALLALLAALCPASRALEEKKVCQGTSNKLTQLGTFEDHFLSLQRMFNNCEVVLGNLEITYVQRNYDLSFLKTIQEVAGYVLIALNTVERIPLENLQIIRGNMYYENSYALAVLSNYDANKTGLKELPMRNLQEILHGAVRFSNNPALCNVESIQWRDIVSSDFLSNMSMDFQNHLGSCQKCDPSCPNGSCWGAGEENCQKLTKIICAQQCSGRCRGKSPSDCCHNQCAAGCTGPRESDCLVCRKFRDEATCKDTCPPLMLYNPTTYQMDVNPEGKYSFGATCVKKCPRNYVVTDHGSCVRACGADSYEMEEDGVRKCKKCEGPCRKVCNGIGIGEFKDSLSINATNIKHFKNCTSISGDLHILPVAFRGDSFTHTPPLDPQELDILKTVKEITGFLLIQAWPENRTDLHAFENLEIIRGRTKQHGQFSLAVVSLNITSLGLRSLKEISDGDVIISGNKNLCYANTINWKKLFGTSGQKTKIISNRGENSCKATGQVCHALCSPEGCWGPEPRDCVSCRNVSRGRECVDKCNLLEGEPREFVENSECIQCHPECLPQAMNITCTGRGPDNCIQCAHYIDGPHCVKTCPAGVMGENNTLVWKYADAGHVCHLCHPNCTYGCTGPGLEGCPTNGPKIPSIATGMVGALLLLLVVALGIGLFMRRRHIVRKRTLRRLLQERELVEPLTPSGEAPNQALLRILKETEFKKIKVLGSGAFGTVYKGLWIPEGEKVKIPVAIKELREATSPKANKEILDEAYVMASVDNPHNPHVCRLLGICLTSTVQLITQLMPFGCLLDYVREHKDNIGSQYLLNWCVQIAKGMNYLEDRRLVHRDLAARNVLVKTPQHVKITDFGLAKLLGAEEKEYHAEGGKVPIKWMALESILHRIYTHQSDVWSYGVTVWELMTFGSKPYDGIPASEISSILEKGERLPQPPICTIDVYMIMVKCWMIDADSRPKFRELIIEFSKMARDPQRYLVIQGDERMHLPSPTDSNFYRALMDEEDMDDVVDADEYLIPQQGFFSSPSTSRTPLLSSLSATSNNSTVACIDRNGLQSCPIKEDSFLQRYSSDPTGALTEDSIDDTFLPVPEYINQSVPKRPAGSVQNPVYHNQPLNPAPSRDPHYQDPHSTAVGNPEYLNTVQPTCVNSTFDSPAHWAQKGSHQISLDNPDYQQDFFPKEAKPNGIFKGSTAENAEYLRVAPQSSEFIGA
Sequence of EGFR T790ML858R (P00533 25-1210 T790M/L858R): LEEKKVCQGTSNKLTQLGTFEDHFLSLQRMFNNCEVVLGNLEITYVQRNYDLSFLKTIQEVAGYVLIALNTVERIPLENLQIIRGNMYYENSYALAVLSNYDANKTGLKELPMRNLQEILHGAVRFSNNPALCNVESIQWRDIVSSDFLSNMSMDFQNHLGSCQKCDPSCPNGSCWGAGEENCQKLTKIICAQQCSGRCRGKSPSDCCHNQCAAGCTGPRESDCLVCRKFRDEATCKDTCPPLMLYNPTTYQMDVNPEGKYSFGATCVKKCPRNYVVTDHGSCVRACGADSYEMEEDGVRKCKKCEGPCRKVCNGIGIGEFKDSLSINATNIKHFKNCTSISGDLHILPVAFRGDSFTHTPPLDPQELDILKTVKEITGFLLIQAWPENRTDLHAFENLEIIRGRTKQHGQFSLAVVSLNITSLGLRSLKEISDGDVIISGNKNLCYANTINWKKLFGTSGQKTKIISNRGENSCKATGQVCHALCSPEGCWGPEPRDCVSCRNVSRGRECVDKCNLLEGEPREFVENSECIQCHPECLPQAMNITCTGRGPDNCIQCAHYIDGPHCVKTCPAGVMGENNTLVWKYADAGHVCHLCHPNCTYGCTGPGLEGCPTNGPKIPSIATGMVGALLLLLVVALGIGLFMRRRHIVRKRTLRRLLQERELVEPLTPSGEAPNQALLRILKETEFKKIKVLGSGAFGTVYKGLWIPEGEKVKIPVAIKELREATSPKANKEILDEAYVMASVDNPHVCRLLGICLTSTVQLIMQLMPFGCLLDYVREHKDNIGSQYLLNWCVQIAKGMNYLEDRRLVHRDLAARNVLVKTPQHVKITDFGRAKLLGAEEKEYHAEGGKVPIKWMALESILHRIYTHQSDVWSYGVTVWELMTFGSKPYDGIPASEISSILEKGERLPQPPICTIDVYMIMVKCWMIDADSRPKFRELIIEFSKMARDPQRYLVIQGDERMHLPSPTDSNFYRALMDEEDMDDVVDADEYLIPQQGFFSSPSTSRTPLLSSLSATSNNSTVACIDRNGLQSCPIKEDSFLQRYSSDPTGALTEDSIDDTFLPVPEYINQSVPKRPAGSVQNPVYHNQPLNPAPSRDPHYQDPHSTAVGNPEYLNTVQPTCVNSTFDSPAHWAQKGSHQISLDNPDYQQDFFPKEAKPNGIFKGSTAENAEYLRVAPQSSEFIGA

For the compound `C=CC(=O)Nc1cc(-c2c(-c3ccc(C4CCN(C)CC4)cc3)[nH]c3ncccc23)ccc1C` [Example 79, N-(2-methyl-5-(2-(4-(1-methylpiperidin-4-yl)phenyl)-1H-pyrrolo[2,3-b]pyridin-3-yl)phenyl)acrylamide], the IC50 was not above 100 nM against EGFR wt; not above 100 nM against HER2 INS YVMA; not above 100 nM against EGFR T790ML858R; not above 100 nM in the series with H1975; 500 to 1000 nM in the series on H1781; 100 to 500 nM in the series on A431. The “Stability in presence of mouse liver microsomes without cofactor NADPH [% remaining after 50 min]” value in series [1] is listed as more than 99 % remaining after 50 min. The GI50 in series [2] and in series [3] was 100 to 500 nM in each case.
On to `C=CC(=O)Nc1cc(-c2c(-c3ccc(N4CCN(C(C)=O)CC4)cc3)[nH]c3nccc(Cl)c23)ccc1C` [Example 8, N-(5-(2-(4-(4-acetylpiperazin-1-yl)phenyl)-4-chloro-1H-pyrrolo[2,3-b]pyridin-3-yl)-2-methylphenyl)acrylamide], for which the 50% inhibitory concentration (IC50) at EGFR wt is not above 100 nM; on HER2 INS YVMA, not above 100 nM; against EGFR T790ML858R, not above 100 nM; in the series on H1975 it was not above 100 nM; with H1781, 100 to 500 nM; in the series with A431, 100 to 500 nM. For the same compound, the “Stability in presence of mouse liver microsomes without cofactor NADPH [% remaining after 50 min]” value in [1] is on record as more than 99 % remaining after 50 min. Moreover, the GI50 in series [2] and in [3] was 100 to 500 nM each time.
Regarding `C=CC(=O)Nc1cc(-c2c(-c3cccc(CN4CCN(C)CC4)c3)[nH]c3nccc(Cl)c23)ccc1C` [Example 16, N-(5-(4-chloro-2-(3-((4-methylpiperazin-1-yl)methyl)phenyl)-1H-pyrrolo[2,3-b]pyridin-3-yl)-2-methylphenyl)acrylamide], the IC50 was not above 100 nM against EGFR wt; not above 100 nM at HER2 INS YVMA; not above 100 nM at EGFR T790ML858R; not above 100 nM in the series on H1975; 500 to 1000 nM in the series on H1781; 500 to 1000 nM in the series on A431. Moreover, the “Stability in presence of mouse liver microsomes without cofactor NADPH [% remaining after 50 min]” value in series [1] is more than 99 % remaining after 50 min. Moreover, the GI50 in series [2] and in series [3] was 100 to 500 nM throughout.
Regarding `C=CC(=O)Nc1cc(-c2c(-c3ccc(N4CCN(C)CC4)nc3)[nH]c3ncccc23)ccc1C` [Example 78, N-(2-methyl-5-(2-(6-(4-methylpiperazin-1-yl)pyridin-3-yl)-1H-pyrrolo[2,3-b]pyridin-3-yl)phenyl)acrylamide 2,2,2-trifluoroacetate], the concentration for half-maximal inhibition (IC50) was not above 100 nM at EGFR wt; 100 to 500 nM on HER2 INS YVMA; not above 100 nM at EGFR T790ML858R; not above 100 nM in the series with H1975; 500 to 1000 nM with H1781; 100 to 500 nM in the series with A431. Moreover, the “Stability in presence of mouse liver microsomes without cofactor NADPH [% remaining after 50 min]” value in [1] is reported as more than 99 % remaining after 50 min. Further, the GI50 in [2] lay in the range of 500 to 1000 nM; in series [3], 100 to 500 nM.
On to `C=CC(=O)Nc1cc(-c2c(-c3ccc(C(=O)N4CCOCC4)cc3)[nH]c3nccc(Cl)c23)ccc1C` [Example 11, N-(5-(4-chloro-2-(4-(morpholine-4-carbonyl)phenyl)-1H-pyrrolo[2,3-b]pyridin-3-yl)-2-methylphenyl)acrylamide], for which the IC50 against EGFR wt is not above 100 nM; on HER2 INS YVMA it was not above 100 nM; against EGFR T790ML858R it was not above 100 nM; with H1975, not above 100 nM; in the series on H1781, 500 to 1000 nM; with A431, 100 to 500 nM. Moreover, the “Stability in presence of mouse liver microsomes without cofactor NADPH [% remaining after 50 min]” value in series [1] was more than 99 % remaining after 50 min. The GI50 in series [2] and in series [3] was 100 to 500 nM in each case.
In the case of `C=CC(=O)Nc1cc(-c2c(-c3ccc(OCCCN(C)C)cc3)[nH]c3nccc(Cl)c23)ccc1C` [Example 13, N-(5-(4-chloro-2-(4-(3-(dimethylamino)propoxy)phenyl)-1H-pyrrolo[2,3-b]pyridin-3-yl)-2-methylphenyl)acrylamide], the IC50 on EGFR wt is not above 100 nM; at HER2 INS YVMA, not above 100 nM; against EGFR T790ML858R, not above 100 nM; with H1975, not above 100 nM; in the series with H1781, 100 to 500 nM; in the series with A431, 100 to 500 nM. Also, the “Stability in presence of mouse liver microsomes without cofactor NADPH [% remaining after 50 min]” value in series [1] came out at 95 % remaining after 50 min. Also, the GI50 in [2] and in series [3] was 100 to 500 nM throughout.
In the case of `C=CC(=O)Nc1cc(-c2c(-c3ccc(CN4CCN(C)CC4)cc3)[nH]c3nccc(OC)c23)ccc1C` [Example 77, N-(5-(4-methoxy-2-(4-((4-methylpiperazin-1-yl)methyl)phenyl)-1H-pyrrolo[2,3-b]pyridin-3-yl)-2-methylphenyl)acrylamide], the 50% inhibitory concentration (IC50) is not above 100 nM at EGFR wt; not above 100 nM against HER2 INS YVMA; not above 100 nM against EGFR T790ML858R; not above 100 nM in the series on H1975; 100 to 500 nM in the series with H1781; 100 to 500 nM in the series with A431. In series [1], the “Stability in presence of mouse liver microsomes without cofactor NADPH [% remaining after 50 min]” value is given as more than 99 % remaining after 50 min. The GI50 in [2] and in series [3] was 100 to 500 nM each time.
Turning to `C=CC(=O)Nc1cc(-c2c(-c3cccc(OCCN(C)C)c3)[nH]c3nccc(Cl)c23)ccc1C` [Example 28, N-(5-(4-chloro-2-(3-(2-(dimethylamino)ethoxy)phenyl)-1H-pyrrolo[2,3-b]pyridin-3-yl)-2-methylphenyl)acrylamide], the half-maximal inhibitory concentration (IC50) against EGFR wt is not above 100 nM; at HER2 INS YVMA it was not above 100 nM; against EGFR T790ML858R, not above 100 nM; in the series on H1975 it was not above 100 nM; with H1781, 100 to 500 nM; with A431 it was 100 to 500 nM. Further, the “Stability in presence of mouse liver microsomes without cofactor NADPH [% remaining after 50 min]” value in series [1] is more than 99 % remaining after 50 min. For the same compound, the GI50 in series [2] and in [3] was 100 to 500 nM throughout.
Turning to `C=CC(=O)Nc1cc(-c2c(-c3ccc(CN4CCOCC4)cc3)[nH]c3nccc(Cl)c23)ccc1C` [Example 5, N-(5-(4-chloro-2-(4-(morpholinomethyl)phenyl)-1H-pyrrolo[2,3-b]pyridin-3-yl)-2-methylphenyl)acrylamide], the IC50 was not above 100 nM on EGFR wt; not above 100 nM against HER2 INS YVMA; not above 100 nM against EGFR T790ML858R; not above 100 nM in the series on H1975; more than 10000 nM with H1781; more than 10000 nM in the series with A431. In addition, the “Stability in presence of mouse liver microsomes without cofactor NADPH [% remaining after 50 min]” value in series [1] is on record as more than 99 % remaining after 50 min. In addition, the GI50 in series [2] and in series [3] was 100 to 500 nM throughout.
On to `C=CC(=O)Nc1cc(-c2c(-c3cccc(OCCCN4CCN(CC)CC4)c3)[nH]c3nccc(Cl)c23)ccc1C` [Example 25, N-(5-(4-chloro-2-(3-(3-(4-ethylpiperazin-1-yl)propoxy)phenyl)-1H-pyrrolo[2,3-b]pyridin-3-yl)-2-methylphenyl)acrylamide], for which the IC50 is not above 100 nM against EGFR wt; not above 100 nM at HER2 INS YVMA; not above 100 nM against EGFR T790ML858R; not above 100 nM in the series with H1975; 500 to 1000 nM in the series with H1781; 100 to 500 nM in the series on A431. Also, the “Stability in presence of mouse liver microsomes without cofactor NADPH [% remaining after 50 min]” value in series [1] was more than 99 % remaining after 50 min. For the same compound, the GI50 in [2] and in [3] was 100 to 500 nM throughout.

The term IC50 denotes the concentration needed to halve the response being measured.

The values are drawn from US20220370440A1 (Lead Discovery Center GmbH, priority 2018, published 2022).
